According to ChEMBL document CHEMBL5223092, “Antibacterial activities of plant-derived xanthones” (RSC Med Chem, 2022):
Values after ≈ are worked out from the molar mass of the structure shown.

Key:
[1] = test system: Staphylococcus aureus; test: Antibacterial activity against methicillin resistant Staphylococcus aureus by liquid dilution method; type: functional
[2] = test system: Staphylococcus aureus; test: Antibacterial activity against Staphylococcus aureus NIHJ 209p; type: functional
[3] = test system: Escherichia coli; test: Antibacterial activity against Escherichia coli NIHJ K 12; type: functional
[4] = test system: Vibrio vulnificus; test: Antibacterial activity against Vibrio vulnificus MCCC E1758; type: functional
[5] = test system: Vibrio rotiferianus; test: Antibacterial activity against Vibrio rotiferianus MCCC E385; type: functional
[6] = test system: Vibrio campbellii; test: Antibacterial activity against Vibrio campbellii MCCC E333; type: functional
[7] = test system: Micrococcus luteus; test: Antibacterial activity against Micrococcus luteus TISTR 1466 incubated for 16 to 18 hrs by Mueller-Hinton broth based two-fold serial dilution method; type: functional; details: time 16-18 hrs
[8] = test system: Bacillus cereus; test: Antibacterial activity against Bacillus cereus TISTR 688 incubated for 16 to 18 hrs by Mueller-Hinton broth based two-fold serial dilution method; type: functional; details: time 16-18 hrs
[9] = test system: Escherichia coli; test: Antibacterial activity against Escherichia coli TISTR 780 incubated for 16 to 18 hrs by Mueller-Hinton broth based two-fold serial dilution method; type: functional; details: time 16-18 hrs
[10] = test system: Salmonella typhimurium; test: Antibacterial activity against Salmonella typhimurium TISTR 292 incubated for 16 to 18 hrs by Mueller-Hinton broth based two-fold serial dilution method; type: functional, Salmonella enterica subsp. enterica serovar Typhimurium; details: Salmonella enterica, time 16-18 hrs
[11] = test system: Pseudomonas aeruginosa; test: Antibacterial activity against Pseudomonas aeruginosa TISTR 781 incubated for 16 to 18 hrs by Mueller-Hinton broth based two-fold serial dilution method; type: functional; details: time 16-18 hrs
[12] = test system: Staphylococcus epidermidis; test: Antibacterial activity against Staphylococcus epidermidis ATCC 12228 incubated for 16 to 18 hrs by Mueller-Hinton broth based two-fold serial dilution method
[13] = test system: Staphylococcus aureus; test: Antibacterial activity against methicillin resistant Staphylococcus aureus; type: functional
[14] = test system: Staphylococcus aureus; test: Antibacterial activity against Staphylococcus aureus; type: functional
[15] = test system: Micrococcus luteus; test: Antibacterial activity against Micrococcus luteus; type: functional
[16] = test system: Staphylococcus epidermidis; test: Antibacterial activity against Staphylococcus epidermidis; type: functional
[17] = test system: Escherichia coli; test: Antibacterial activity against Escherichia coli; type: functional
[18] = test system: Pseudomonas aeruginosa; test: Antibacterial activity against Pseudomonas aeruginosa; type: functional
[19] = test system: Bacillus subtilis; test: Antibacterial activity against Bacillus subtilis incubated for 8 to 12 hrs by Alamar blue reagent based microdilution broth method; type: functional; details: time 8-12 hrs
[20] = test system: Staphylococcus aureus; test: Antibacterial activity against Staphylococcus aureus TISTR 517 incubated for 8 to 12 hrs by Alamar blue reagent based microdilution broth method; type: functional; details: time 8-12 hrs
[21] = test system: Pseudomonas aeruginosa; test: Antibacterial activity against Pseudomonas aeruginosa incubated for 8 to 12 hrs by Alamar blue reagent based microdilution broth method; type: functional; details: time 8-12 hrs
[22] = test system: Enterococcus faecalis; test: Antibacterial activity against Streptococcus faecalis incubated for 8 to 12 hrs by Alamar blue reagent based microdilution broth method; type: functional; details: time 8-12 hrs
[23] = test system: Salmonella typhi; test: Antibacterial activity against Salmonella typhi incubated for 8 to 12 hrs by Alamar blue reagent based microdilution broth method; type: functional, Salmonella enterica subsp. enterica serovar Typhi; details: Salmonella enterica; time 8-12 hrs
[24] = test system: Bacillus subtilis; test: Antibacterial activity against Bacillus subtilis TISTR 008 by Mueller-Hinton broth based two-fold serial dilution method; type: functional
[25] = test system: Micrococcus luteus; test: Antibacterial activity against Micrococcus luteus TISTR 884 by Mueller-Hinton broth based two-fold serial dilution method; type: functional
[26] = test system: Staphylococcus epidermidis; test: Antibacterial activity against Staphylococcus epidermis ATCC 12228 by Mueller-Hinton broth based two-fold serial dilution method; type: functional
[27] = Lipophilicity, logP of the compound; type: physicochemical; details: octanol/water
[28] = test system: Vibrio harveyi; test: Antibacterial activity against Vibrio harveyi SZ-1 incubated for 24 hrs by oxford cup method; type: functional
[29] = test system: Vibrio harveyi; test: Antibacterial activity against Vibrio harveyi 1.8690 incubated for 24 hrs by oxford cup method; type: functional
[30] = test system: Listeria monocytogenes; test: Antibacterial activity against Listeria monocytogenes DMST 17303 by Mueller-Hinton broth based two-fold serial dilution method; type: functional
[31] = test system: Staphylococcus aureus; test: Antibacterial activity against Staphylococcus aureus TISTR 517 by Mueller-Hinton broth based two-fold serial dilution method; type: functional
[32] = test system: Staphylococcus epidermidis; test: Antibacterial activity against Staphylococcus epidermidis DMST 15505 by Mueller-Hinton broth based two-fold serial dilution method; type: functional
[33] = test system: Streptococcus pyogenes; test: Antibacterial activity against Streptococcus pyogenes DMST 17020 by Mueller-Hinton broth based two-fold serial dilution method; type: functional
[34] = test system: Escherichia coli; test: Antibacterial activity against Escherichia coli ATCC 25922 by Mueller-Hinton broth based two-fold serial dilution method; type: functional
[35] = test system: Staphylococcus aureus; test: Antibacterial activity against methicillin resistant Staphylococcus aureus SK1 incubated for 16 to 18 hrs by agar microdilution method; type: functional; details: time 16-18 hrs
[36] = test system: Bacillus cereus; test: Antibacterial activity against Bacillus cereus; type: functional
[37] = test system: Bacillus subtilis; test: Antibacterial activity against Bacillus subtilis; type: functional

CC(C)=CCc1c(O)cc2oc3c(CC=C(C)C)c(O)c(O)c(CC=C(C)C)c3c(=O)c2c1O [GARCINONE E]
MIC [1]: 25 µg/mL (≈ 53.8 µM) | MIC [2]: 12.5 µg/mL (≈ 26.9 µM) | MIC [3]: 25 µg/mL (≈ 53.8 µM) | MIC [4]: 15.6 µg/mL (≈ 33.6 µM) | MIC [5]: 15.6 µg/mL (≈ 33.6 µM) | MIC [6]: 31.2 µg/mL (≈ 67.2 µM)

CC1(C)CC(O)Oc2cc(O)c3c(=O)c4cccc(O)c4oc3c21 (stereo not drawn)
MIC [7]: 16 µg/mL (≈ 48.7 µM) | MIC [8]: 32 µg/mL (≈ 97.5 µM) | MIC [9]: 32 µg/mL (≈ 97.5 µM) | MIC [10]: 32 µg/mL (≈ 97.5 µM) | MIC [11]: 16 µg/mL (≈ 48.7 µM) | MIC [12]: 16 µg/mL (≈ 48.7 µM)

COc1c(O)cc2oc3cc(O)c(CC=C(C)C)c(O)c3c(=O)c2c1CC=C(C)C [MANGOSTIN]
MIC [13]: 6.25 µg/mL (≈ 15.2 µM) | MIC [14]: 3.13 µg/mL (≈ 7.63 µM) | MIC [15]: 1 µg/mL (≈ 2.44 µM) | MIC [16]: 1.56 µg/mL (≈ 3.8 µM) | MIC [17]: 12.5 µg/mL (≈ 30.5 µM) | MIC [18]: 12.5 µg/mL (≈ 30.5 µM)

CC(C)=CCC/C(C)=C/Cc1c2c(c3oc4c(O)cccc4c(=O)c3c1O)C=CC(C)(C)O2
MIC [19]: 4.6 µg/mL (≈ 10.3 µM) | MIC [20]: 2.3 µg/mL (≈ 5.15 µM) | MIC [21]: > 50 µg/mL | MIC [22]: 18.7 µg/mL (≈ 41.9 µM) | MIC [23]: 4.6 µg/mL (≈ 10.3 µM)

COc1c(O)cc2oc3cc(O)cc(O)c3c(=O)c2c1C/C=C(\C)CCC=C(C)C [RUBRAXANTHONE]
MIC [1]: 1.25 µg/mL (≈ 3.05 µM) | MIC [14]: 12 µg/mL (≈ 29.2 µM) | MIC [24]: 1 µg/mL (≈ 2.44 µM) | MIC [25]: 2 µg/mL (≈ 4.87 µM) | MIC [26]: 4 µg/mL (≈ 9.75 µM)

C=CC(C)(C)c1c(O)c(CC=C(C)C)c(O)c2c(=O)c3ccc(O)c(O)c3oc12 [GERONTOXANTHONE I]
MIC [13]: 3.13 µg/mL (≈ 7.9 µM) | MIC [15]: 6.25 µg/mL (≈ 15.8 µM) | MIC [19]: 2.5 µg/mL (≈ 6.31 µM) | MIC [20]: 1.1 µg/mL (≈ 2.77 µM) | MIC [21]: > 50 µg/mL | MIC [22]: 3.13 µg/mL (≈ 7.9 µM) | MIC [23]: 1.1 µg/mL (≈ 2.77 µM)

COc1cc2c(=O)c3c(O)cc(O)cc3oc2cc1O [ALLOATHYRIOL]
MIC [10]: 4 µg/mL (≈ 14.6 µM) | logP [27]: 1.74

COc1cc(O)cc2c1C(=O)c1c(O)cc(C)cc1C2=O [QUESTIN]
MIC [28]: < 50 µg/mL | MIC [29]: < 50 µg/mL

COc1c(O)cc2oc3cc4c(c(O)c3c(=O)c2c1CC=C(C)C)CC(C(C)(C)O)O4 (stereo not drawn)
MIC [15]: 12.5 µg/mL (≈ 29.3 µM) | MIC [30]: 0.78 µg/mL (≈ 1.83 µM) | MIC [31]: 12.5 µg/mL (≈ 29.3 µM) | MIC [32]: 25 µg/mL (≈ 58.6 µM) | MIC [33]: 3.13 µg/mL (≈ 7.34 µM) | MIC [34]: 25 µg/mL (≈ 58.6 µM) | MIC [35]: 4 µg/mL (≈ 9.38 µM) | MIC [36]: 8 µg/mL (≈ 18.8 µM) | MIC [37]: 2 µg/mL (≈ 4.69 µM)
